In patent US8143244B2, “Cyclopropyl fused indolobenzazepine HCV NS5B inhibitors” (Bristol-Myers Squibb Company, priority 2009, dated 2012):
Where two headings read alike, the source gives them in different places.

Legend:
HCV NS5B = biological target: T1, HCV NS5B (Hepatitis C virus genotype 1b, UniProt Q9WMX2); assay: HCV NS5B RdRp enzyme assay; type: biochemical; details: HCV NS5B RdRp genotype 1b
T1 construct: The protein was expressed with an 18 amino acid C-terminal truncation to enhance the solubility; made in house; host or cells: E. coli BL21(DE3)
T1 sequence (Q9WMX2 2420-2992): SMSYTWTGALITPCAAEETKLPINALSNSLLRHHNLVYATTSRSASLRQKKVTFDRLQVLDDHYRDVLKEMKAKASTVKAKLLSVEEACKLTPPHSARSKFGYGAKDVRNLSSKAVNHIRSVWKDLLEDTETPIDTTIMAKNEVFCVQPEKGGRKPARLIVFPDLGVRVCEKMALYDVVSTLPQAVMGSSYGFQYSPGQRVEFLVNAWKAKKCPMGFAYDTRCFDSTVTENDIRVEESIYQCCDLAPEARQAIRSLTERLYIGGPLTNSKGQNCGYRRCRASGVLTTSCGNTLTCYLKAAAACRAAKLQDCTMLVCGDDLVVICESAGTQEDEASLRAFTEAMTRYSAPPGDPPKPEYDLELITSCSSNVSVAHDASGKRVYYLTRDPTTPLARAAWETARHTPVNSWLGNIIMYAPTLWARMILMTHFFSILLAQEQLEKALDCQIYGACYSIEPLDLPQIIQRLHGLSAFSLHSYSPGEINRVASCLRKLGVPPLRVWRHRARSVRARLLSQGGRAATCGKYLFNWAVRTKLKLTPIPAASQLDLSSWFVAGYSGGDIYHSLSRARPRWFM
Experimental: HCV NS5B RdRp cloning, expression, and purification. The cDNA encoding the NS5B protein of HCV, genotype 1b, was cloned into the pET21a expression vector. The protein was expressed with an 18 amino acid C-terminal truncation to enhance the solubility. The E. coli competent cell line BL21(DE3) was used for expression of the protein. Cultures were grown at 37° C. for ˜4 hours until the cultures reached an optical density of 2.0 at 600 nm. The cultures were cooled to 20° C. and induced with 1 mM IPTG. Fresh ampicillin was added to a final concentration of 50 μg/ml and the cells were grown overnight at 20° C.
Cell pellets (3L) were lysed for purification to yield 15-24 mgs of purified NS5B. The lysis buffer consisted of 20 mM Tris-HCl, pH 7.4, 500 mM NaCl, 0.5% triton X-100, 1 mM DTT, 1 mM EDTA, 20% glycerol, 0.5 mg/ml lysozyme, 10 mM MgCl2, 15 ug/ml deoxyribonuclease I, and Complete TM protease inhibitor tablets (Roche). After addition of the lysis buffer, frozen cell pellets were resuspended using a tissue homogenizer. To reduce the viscosity of the sample, aliquots of the lysate were sonicated on ice using a microtip attached to a Branson sonicator. The sonicated lysate was centrifuged at 100,000×g for 1 hr at 4° C. and filtered through a 0.2 μm filter unit (Corning).
The protein was purified using three sequential chromatography steps: Heparin sepharose CL-6B, polyU sepharose 4B, and Hitrap SP sepharose (Pharmacia). The chromatography buffers were identical to the lysis buffer but contained no lysozyme, deoxyribonuclease I, MgCl2 or protease inhibitor and the NaCl concentration of the buffer was adjusted according to the requirements for charging the protein onto the column. Each column was eluted with a NaCl gradient which varied in length from 5-50 column volumes depending on the column type. After the final chromatography step, the resulting purity of the enzyme is >90% based on SDS-PAGE analysis. The enzyme was aliquoted and stored at −80° C.
Standard HCV NS5B RdRp enzyme assay. HCV RdRp genotype 1b assays were run in a final volume of 60 μl in 96 well plates (Costar 3912). The assay buffer is composed of 20 mM Hepes, pH 7.5, 2.5 mM KCl, 2.5 mM MgCl2, 1 mM DTT, 1.6 U RNAse inhibitor (Promega N2515), 0.1 mg/ml BSA (Promega R3961), and 2% glycerol. All compounds were serially diluted (3-fold) in DMSO and diluted further in water such that the final concentration of DMSO in the assay was 2%. HCV RdRp genotype 1b enzyme was used at a final concentration of 28 nM. A polyA template was used at 6 nM, and a biotinylated oligo-dT12 primer was used at 180 nM final concentration. Template was obtained commercially (Amersham 27-4110). Biotinylated primer was prepared by Sigma Genosys. 3H-UTP was used at 0.6 μCi (0.29 μM total UTP). Reactions were initiated by the addition of enzyme, incubated at 30° C. for 60 min, and stopped by adding 25 μl of 50 mM EDTA containing SPA beads (4 μg/μl, Amersham RPNQ 0007). Plates were read on a Packard Top Count NXT after >1 hr incubation at room temperature.
Modified HCV NS5B RdRp enzyme assay. A modified enzyme assay was performed essentially as described for the standard enzyme assay except for the following: The biotinylated oligo dT12 primer was precaptured on streptavidin-coated SPA beads by mixing primer and beads in assay buffer and incubating at room temperature for one hour. Unbound primer was removed after centrifugation. The primer-bound beads were resuspended in 20 mM Hepes buffer, pH 7.5 and used in the assay at final concentrations of 20 nM primer and 0.67 μg/μl beads. Order of addition in the assay: enzyme (14 nM) was added to diluted compound followed by the addition of a mixture of template (0.2 nM), 3H-UTP (0.6 μCi, 0.29 μM), and primer-bound beads, to initiate the reaction; concentrations given are final. Reactions were allowed to proceed for 4 hours at 30° C.
IC50 values for compounds were determined using seven different [I]. […]

HCV replicon = assay: HCV Replicon Luciferase Reporter Assay (LE Assay); type: cell-based, HCV genotype 1b
Experimental: The HCV replicon luciferase assay was developed to monitor the inhibitory effects of compounds described in the disclosure on HCV viral replication. Utilization of a replicon luciferase reporter assay was first described by Krieger et al (Krieger N, Lohmann V, and Bartenschlager R, J. Virol. 75(10):4614-4624 (2001)). HUH-7 cells, constitutively expressing the HCV replicon, were grown in Dulbeccors Modified Eagle Media (DMEM) (Gibco-BRL) containing 10% Fetal calf serum (FCS) (Sigma) and 1 mg/ml G418 (Gibco-BRL). Compounds were serially diluted 3 folds in DMSO for a twenty-point titration and subsequently transferred to sterile 384-well tissue-culture treated plates (Coming cat #3571). The plates were then seeded with 50 μl of cells at a density of 3.0×10^3 cells/well in DMEM containing 4% FCS (final DMSO concentration at 0.5%). After 3 days incubation at 37° C., cells were analyzed for Renilla Luciferase activity using the EnduRen as substrate (Promega cat #E6485). The EnduRen substrate was diluted in DMEM and then added to the plates to a final concentration of 7.5 μM. The plates were incubated for 2 hrs at 37° C. and then read immediately for 30 seconds with Viewlux Imager (PerkinElmer) using a luminescence program. To assess cytotoxicity of compounds, CC50 values were generated by multiplexing the EnduRen-containing plates with Cell Titer-Blue (Promega, cat #G8082). 3 μl of Cell-Titer Blue was added to each well and incubated for 8 hrs at 37° C. The fluorescence signal from each well was read, with an excitation wavelength at 525/10 nm and an emission wavelength of 598/10 nm, using the Viewlux Imager.

[1] = Hepatitis C virus, genotype 1b, Huh-7, read-out: LE NeoLuc EC50, Table 1, HUH-7 cells, genotype 1b replicon
[2] = Hepatitis C virus, Huh-7, Table 2, HUH-7 cells, read-out: LE NeoLuc EC50
[3] = Table 2, HUH-7 cells, read-out: LE NeoLuc EC50

Row | Structure (SMILES) | IC50 (HCV NS5B; Table 1) [nM] | EC50 (HCV replicon; [1]) [nM] | IC50 (HCV NS5B; Table 2) [nM] | EC50 (HCV replicon; [2]) [nM] | EC50 (HCV replicon; [3]) [nM]
1 | COc1ccc2c(c1)CC(C(=O)N1CC34CNCC3(COC4)C1)Cn1c-2c(C2CCCCC2)c2ccc(C(=O)NS(=O)(=O)C3CC3)cc21 (stereo not shown) | 1.9 to 500 | 500 to 5000 | – | – | –
2 | COc1ccc2c(c1)CC(C(=O)N1CC34CN(C)CC3(CN(C)C4)C1)Cn1c-2c(C2CCCCC2)c2ccc(C(=O)NS(=O)(=O)N(C)C)cc21 (stereo not shown) | 1.9 to 500 | 1.9 to 500 | – | – | –
3 | COc1ccc2c(c1)C1CC1(C(=O)N1CC34COCC3(CN(C(C)=O)C4)C1)Cn1c-2c(C2CCCCC2)c2ccc(C(=O)NS(=O)(=O)CC(C)C)cc21 (stereo not shown) | 1.9 to 500 | 500 to 1000 | – | – | –
4 | COc1ccc2c(c1)CC(C(=O)N1CC34CNCC3(CN(C)C4)C1)Cn1c-2c(C2CCCCC2)c2ccc(C(=O)NS(=O)(=O)C3CC3)cc21 (stereo not shown) | 1.9 to 500 | 500 to 1000 | – | – | –
5 | COc1ccc2c(c1)CC(C(=O)N1CC34COCC3(CN(C)C4)C1)Cn1c-2c(C2CCCCC2)c2ccc(C(=O)NS(=O)(=O)C3CC3)cc21 (stereo not shown) | 1.9 to 500 | 1.9 to 500 | – | – | –
6 | COc1ccc2c(c1)[C@@H]1C[C@]1(C(=O)N1CC34COCC3(C1)CN(C1CC1)C4)Cn1c-2c(C2CCCCC2)c2ccc(C(=O)NS(=O)(=O)C(C)C)cc21 (stereo partly shown) | 2.5 to 500 | 1.9 to 500 | – | – | –
7 | COc1ccc2c(c1)[C@@H]1C[C@]1(C(=O)N1CC34COCC3(C1)N(C(C)=O)C4)Cn1c-2c(C2CCCCC2)c2ccc(C(=O)NS(=O)(=O)N(C)C)cc21 (stereo partly shown) | 1.9 to 500 | 1.9 to 500 | – | – | –
8 | COc1ccc2c(c1)C=C(C(=O)N1CC34COCC3(C1)N(C(C)=O)C4)Cn1c-2c(C2CCCCC2)c2ccc(C(=O)NS(=O)(=O)N(C)C)cc21 (stereo not shown) | 1.9 to 500 | 1.9 to 500 | – | – | –
9 | COc1ccc2c(c1)C1CC1(C(=O)N1CC34CNCC3(CN(C)C4)C1)Cn1c-2c(C2CCCCC2)c2ccc(C(=O)NS(=O)(=O)C3CC3)cc21 (stereo not shown) | – | – | 7.8 | 2100 | –
10 | COc1ccc2c(c1)C1CC1(C(=O)N1CC34COCC3(CN(C)C4)C1)Cn1c-2c(C2CCCCC2)c2ccc(C(=O)NS(=O)(=O)N(C)C)cc21 (stereo not shown) [drawing 61] | 1.9 to 500 | 1.9 to 500 | – | – | –
11 | COc1ccc2c(c1)[C@@H]1C[C@]1(C(=O)N1CC34COCC3(C1)N(C(C)=O)C4)Cn1c-2c(C2CCCCC2)c2ccc(C(=O)NS(=O)(=O)C(C)C)cc21 (stereo partly shown) [drawing 73] | 1.9 to 500 | 1.9 to 500 | – | – | –
12 | COc1ccc2c(c1)C1CC1(C(=O)N1CC34COCC3(CN(C)C4)C1)Cn1c-2c(C2CCCCC2)c2ccc(C(=O)NS(=O)(=O)N(C)C)cc21 (stereo not shown) [drawing 106] | – | – | 8.79 | 40 | –
13 | COc1ccc2c(c1)[C@@H]1C[C@]1(C(=O)N1CC34COCC3(C1)N(C(C)=O)C4)Cn1c-2c(C2CCCCC2)c2ccc(C(=O)NS(=O)(=O)C(C)C)cc21 (stereo partly shown) [drawing 109] | – | – | 3.1 | – | 90
14 | COc1ccc2c(c1)[C@@H]1C[C@]1(C(=O)N1CC34COCC3(C1)N(C(C)=O)C4)Cn1c-2c(C2CCCCC2)c2ccc(C(=O)NS(=O)(=O)C(C)C)cc21 (stereo partly shown) [drawing 110] | – | – | 2.4 | – | 30
